# According to PMC5218480 (PLoS ONE, 2017):
# System: MV-4-11 cells
# Assay: Gene expression microarray analysis (Affymetrix PrimeView) and GSEA
# Format: cell-based, human
# Parameters: RFU PODN (11730768_x_at) / Fold change /veh PODN (11730768_x_at) / RFU LINC00158 (11744669_a_at) / Fold change /veh LINC00158 (11744669_a_at) / RFU DUSP10 (11751237_a_at) / Fold change /veh DUSP10 (11751237_a_at) / RFU ID3 (11757404_x_at) / Fold change /veh ID3 (11757404_x_at) / RFU PLEKHG5 (11737974_s_at) / Fold change /veh PLEKHG5 (11737974_s_at) / RFU LRRC4B (11730491_at) / Fold change /veh LRRC4B (11730491_at) / RFU GIMAP4 (11747438_a_at) / Fold change /veh GIMAP4 (11747438_a_at) / RFU KRT8 (11758183_x_at) / Fold change /veh KRT8 (11758183_x_at) / RFU CNN1 (11734310_a_at) / Fold change /veh CNN1 (11734310_a_at) / RFU VPS37D (11726825_at) / Fold change /veh VPS37D (11726825_at) / RFU C10orf10 (11716522_x_at) / Fold change /veh C10orf10 (11716522_x_at) / RFU KIR2DL2 /// KIR2DL4 /// KIR2DL5A /// KIR2DL5B /// KIR2DS1 /// KIR2DS2 /// KIR2DS3 /// KIR2DS4 /// KIR3DL3 /// KIR3DL3 /// KIR3DS1 (11738374_at) / Fold change /veh KIR2DL2 /// KIR2DL4 /// KIR2DL5A /// KIR2DL5B /// KIR2DS1 /// KIR2DS2 /// KIR2DS3 /// KIR2DS4 /// KIR3DL3 /// KIR3DL3 /// KIR3DS1 (11738374_at) / RFU C1QL1 (11718748_at) / Fold change /veh C1QL1 (11718748_at) / RFU TMPRSS4 (11747572_a_at) / Fold change /veh TMPRSS4 (11747572_a_at) / RFU HAMP (11756126_x_at) / Fold change /veh HAMP (11756126_x_at) / RFU RNFT2 (11725882_a_at) / Fold change /veh RNFT2 (11725882_a_at) / RFU NR4A2 (11747474_a_at) / Fold change /veh NR4A2 (11747474_a_at) / RFU ABCC12 (11746883_a_at) / Fold change /veh ABCC12 (11746883_a_at) / RFU TMEM136 (11760407_x_at) / Fold change /veh TMEM136 (11760407_x_at) / RFU CLDN22 /// WWC2 (11732394_at) / Fold change /veh CLDN22 /// WWC2 (11732394_at) / RFU HLA-DPB1 (11760878_x_at) / Fold change /veh HLA-DPB1 (11760878_x_at) / RFU SPINT1 (11716480_a_at) / Fold change /veh SPINT1 (11716480_a_at) / RFU GAP43 (11754022_s_at) / Fold change /veh GAP43 (11754022_s_at) / RFU A4GNT (11735810_at) / Fold change /veh A4GNT (11735810_at) / RFU PRB3 (11715151_x_at) / Fold change /veh PRB3 (11715151_x_at) / RFU TUBB4B (11761932_at) / Fold change /veh TUBB4B (11761932_at) / RFU CAPN14 (11732068_a_at) / Fold change /veh CAPN14 (11732068_a_at) / RFU TMCC2 (11721928_a_at) / Fold change /veh TMCC2 (11721928_a_at) / RFU IRGQ (11745062_a_at) / Fold change /veh IRGQ (11745062_a_at) / RFU FAM174B (11720279_a_at) / Fold change /veh FAM174B (11720279_a_at) / RFU TMPRSS4 (11748680_a_at) / Fold change /veh TMPRSS4 (11748680_a_at) / RFU FAM212B (11763350_a_at) / Fold change /veh FAM212B (11763350_a_at) / RFU PLEKHG5 (11743358_a_at) / Fold change /veh PLEKHG5 (11743358_a_at) / RFU ZSCAN30 (11745921_a_at) / Fold change /veh ZSCAN30 (11745921_a_at) / RFU CMKLR1 (11741424_a_at) / Fold change /veh CMKLR1 (11741424_a_at) / RFU LOC101060620 /// MAPK8IP1 (11723275_at) / Fold change /veh LOC101060620 /// MAPK8IP1 (11723275_at) / RFU SPTSSB (11747773_x_at) / Fold change /veh SPTSSB (11747773_x_at) / RFU PRSS12 (11739890_at) / Fold change /veh PRSS12 (11739890_at) / RFU BIN1 (11741810_x_at) / Fold change /veh BIN1 (11741810_x_at) / RFU WNT11 (11732464_a_at) / Fold change /veh WNT11 (11732464_a_at) / RFU C10orf10 (11716521_a_at) / Fold change /veh C10orf10 (11716521_a_at) / RFU C5orf56 (11738089_at) / Fold change /veh C5orf56 (11738089_at) / RFU CYB561 (11721691_x_at) / Fold change /veh CYB561 (11721691_x_at) / RFU ANKRD19P (11752326_a_at) / Fold change /veh ANKRD19P (11752326_a_at) / RFU OR2T12 /// OR2T33 /// OR2T8 (11738714_s_at) / Fold change /veh OR2T12 /// OR2T33 /// OR2T8 (11738714_s_at) / RFU VCAN (11748164_a_at) / Fold change /veh VCAN (11748164_a_at) / RFU JSRP1 (11732532_at) / Fold change /veh JSRP1 (11732532_at) / RFU KRTAP10-11 (11738290_x_at) / Fold change /veh KRTAP10-11 (11738290_x_at) / RFU MYO3A (11730013_a_at) / Fold change /veh MYO3A (11730013_a_at) / RFU EBF3 (11725865_a_at) / Fold change /veh EBF3 (11725865_a_at) / RFU CAMK2N1 (11719241_x_at) / Fold change /veh CAMK2N1 (11719241_x_at) / RFU C5orf56 (11738088_a_at) / Fold change /veh C5orf56 (11738088_a_at) / RFU OLFML3 (11715873_a_at) / Fold change /veh OLFML3 (11715873_a_at) / RFU LOC100653217 /// NTM (11731650_a_at) / Fold change /veh LOC100653217 /// NTM (11731650_a_at) / RFU MAPK11 (11762145_a_at) / Fold change /veh MAPK11 (11762145_a_at) / RFU FIZ1 (11724087_x_at) / Fold change /veh FIZ1 (11724087_x_at) / RFU OASL (11726364_x_at) / Fold change /veh OASL (11726364_x_at) / RFU SOX15 (11748057_x_at) / Fold change /veh SOX15 (11748057_x_at) / RFU CD79A (11719716_a_at) / Fold change /veh CD79A (11719716_a_at) / RFU HIST1H1D (11736915_at) / Fold change /veh HIST1H1D (11736915_at) / RFU CASKIN2 (11723855_a_at) / Fold change /veh CASKIN2 (11723855_a_at) / RFU LOC730098 (11760151_x_at) / Fold change /veh LOC730098 (11760151_x_at) / RFU OR4N2 (11742367_at) / Fold change /veh OR4N2 (11742367_at) / RFU PRRT2 (11749266_a_at) / Fold change /veh PRRT2 (11749266_a_at) / RFU SNX32 (11753110_a_at) / Fold change /veh SNX32 (11753110_a_at) / RFU CDHR5 (11726645_a_at) / Fold change /veh CDHR5 (11726645_a_at) / RFU RCAN1 (11760418_a_at) / Fold change /veh RCAN1 (11760418_a_at) / RFU FAM167A (11723789_a_at) / Fold change /veh FAM167A (11723789_a_at) / RFU FAM26E (11764081_at) / Fold change /veh FAM26E (11764081_at) / RFU ISYNA1 (11749810_s_at) / Fold change /veh ISYNA1 (11749810_s_at) / RFU ACY1 (11761880_at) / Fold change /veh ACY1 (11761880_at) / RFU 11764098_at / Fold change /veh 11764098_at / RFU SAMD14 (11745864_x_at) / Fold change /veh SAMD14 (11745864_x_at) / RFU NPB (11741838_a_at) / Fold change /veh NPB (11741838_a_at) / RFU TMPRSS6 (11731388_a_at) / Fold change /veh TMPRSS6 (11731388_a_at) / RFU KRTAP10-2 (11738614_at) / Fold change /veh KRTAP10-2 (11738614_at) / RFU ARHGAP8 /// PRR5-ARHGAP8 (11727945_x_at) / Fold change /veh ARHGAP8 /// PRR5-ARHGAP8 (11727945_x_at) / RFU KRTAP5-7 /// NADSYN1 (11734609_at) / Fold change /veh KRTAP5-7 /// NADSYN1 (11734609_at) / RFU RASL12 (11751679_a_at) / Fold change /veh RASL12 (11751679_a_at) / RFU CDKN2B (11736163_a_at) / Fold change /veh CDKN2B (11736163_a_at) / RFU PRF1 (11729649_at) / Fold change /veh PRF1 (11729649_at) / RFU, ZNF638 /// ZNF638-IT1 / Fold change vs veh, ZNF638 /// ZNF638-IT1 / RFU, PANK3 / Fold change vs veh, PANK3 / RFU, SH3YL1 / Fold change vs veh, SH3YL1 / RFU, ZEB2 / Fold change vs veh, ZEB2 / RFU, NRIP1 / Fold change vs veh, NRIP1 / RFU, PTTG1IP / Fold change vs veh, PTTG1IP / RFU, CAPN2 / Fold change vs veh, CAPN2 / RFU, MED14 / Fold change vs veh, MED14 / RFU, SNORA58 / Fold change vs veh, SNORA58 / RFU, C1orf63 / Fold change vs veh, C1orf63 / RFU, LRRFIP1 / Fold change vs veh, LRRFIP1 / RFU, NDUFAF7 / Fold change vs veh, NDUFAF7 / RFU, SLC12A2 / Fold change vs veh, SLC12A2 / RFU, IBTK / Fold change vs veh, IBTK / RFU, ESF1 / Fold change vs veh, ESF1 / Fold change vs veh, TMEM50B / RFU, TAOK1 / Fold change vs veh, TAOK1 / RFU, ACBD3 / Fold change vs veh, ACBD3 / RFU, TMA16 / Fold change vs veh, TMA16 / RFU, RWDD3 / Fold change vs veh, RWDD3 / RFU, BCAT1 / Fold change vs veh, BCAT1 / RFU, EDEM3 / Fold change vs veh, EDEM3 / RFU, TMEM33 / Fold change vs veh, TMEM33 / RFU, WDR75 / Fold change vs veh, WDR75 / RFU, AHCTF1 / Fold change vs veh, AHCTF1 / RFU, TFRC / Fold change vs veh, TFRC / RFU, ZDHHC17 / Fold change vs veh, ZDHHC17 / RFU, NOM1 / Fold change vs veh, NOM1 / RFU, ARL8B / Fold change vs veh, ARL8B / RFU, ZBTB11 / Fold change vs veh, ZBTB11 / RFU, TAMM41 / Fold change vs veh, TAMM41 / RFU, KIAA1704 /// LOC100996395 / Fold change vs veh, KIAA1704 /// LOC100996395 / RFU, ING1 / Fold change vs veh, ING1 / RFU, TRMT61B / Fold change vs veh, TRMT61B / RFU, FUBP3 / Fold change vs veh, FUBP3 / RFU, TP53 / Fold change vs veh, TP53 / RFU, TNKS2 / Fold change vs veh, TNKS2 / RFU, ZFP14 / Fold change vs veh, ZFP14 / RFU, ACTR2 / Fold change vs veh, ACTR2 / RFU, PPP3R1 / Fold change vs veh, PPP3R1 / RFU, PIK3R1 / Fold change vs veh, PIK3R1 / RFU, HNRNPA1 / Fold change vs veh, HNRNPA1 / RFU, RNF170 / Fold change vs veh, RNF170 / RFU, ZNF28 / Fold change vs veh, ZNF28 / RFU, RNGTT / Fold change vs veh, RNGTT / RFU, OGT / Fold change vs veh, OGT / RFU, BRD1 / Fold change vs veh, BRD1 / RFU, MARS / Fold change vs veh, MARS / RFU, ZNF655 / Fold change vs veh, ZNF655 / RFU, FAHD1 / Fold change vs veh, FAHD1 / RFU, BDP1 / Fold change vs veh, BDP1 / RFU, LRRCC1 / Fold change vs veh, LRRCC1 / RFU, ARID1A / Fold change vs veh, ARID1A / RFU, ZNF146 / Fold change vs veh, ZNF146 / RFU, ZNF330 / Fold change vs veh, ZNF330 / RFU, GPN3 / Fold change vs veh, GPN3 / RFU, C9orf123 / Fold change vs veh, C9orf123 / RFU, N4BP2L2 / Fold change vs veh, N4BP2L2 / RFU, ARFIP1 / Fold change vs veh, ARFIP1 / RFU, FAM179B / Fold change vs veh, FAM179B / RFU, BCL10 / Fold change vs veh, BCL10 / RFU, UHRF1BP1L / Fold change vs veh, UHRF1BP1L / RFU, BET1 / Fold change vs veh, BET1 / RFU, CNOT2 / Fold change vs veh, CNOT2 / RFU, ZNF268 / Fold change vs veh, ZNF268 / Fold change vs veh, ZNF507 / RFU, DGCR2 / Fold change vs veh, DGCR2 / RFU, WDSUB1 / Fold change vs veh, WDSUB1 / Fold change vs veh, HSP90B1 /// MIR3652 / RFU, ADSS / Fold change vs veh, ADSS / RFU, GK / Fold change vs veh, GK / RFU, ZNF148 / Fold change vs veh, ZNF148 / RFU, TAF9 / Fold change vs veh, TAF9 / RFU, SLC1A5 / Fold change vs veh, SLC1A5 / RFU, SLMO2 / Fold change vs veh, SLMO2 / RFU, ABCC4 / Fold change vs veh, ABCC4 / RFU, LOC101060439 /// RAP1B / Fold change vs veh, LOC101060439 /// RAP1B / RFU, RFX7 / Fold change vs veh, RFX7 / RFU, GTPBP10 / Fold change vs veh, GTPBP10 / RFU, CNEP1R1 / Fold change vs veh, CNEP1R1 / RFU, BIVM-ERCC5 /// ERCC5 / Fold change vs veh, BIVM-ERCC5 /// ERCC5 / RFU, ILF3 / Fold change vs veh, ILF3 / RFU 11762660_at / Fold change /veh 11762660_at / RFU VCAN (11757783_s_at) / Fold change /veh VCAN (11757783_s_at) / RFU DDX43 (11728927_at) / Fold change /veh DDX43 (11728927_at) / RFU KRT8 (11758188_x_at) / Fold change /veh KRT8 (11758188_x_at) / RFU NKD1 (11759106_at) / Fold change /veh NKD1 (11759106_at) / RFU SRD5A1 (11742802_a_at) / Fold change /veh SRD5A1 (11742802_a_at) / RFU TPSAB1 /// TPSB2 (11721975_s_at) / Fold change /veh TPSAB1 /// TPSB2 (11721975_s_at) / RFU GSTM3 (11746129_a_at) / Fold change /veh GSTM3 (11746129_a_at) / RFU IL23R (11737362_x_at) / Fold change /veh IL23R (11737362_x_at) / RFU TMEM51 (11727254_a_at) / Fold change /veh TMEM51 (11727254_a_at) / RFU PIWIL2 (11732686_x_at) / Fold change /veh PIWIL2 (11732686_x_at) / RFU ORM1 (11744905_x_at) / Fold change /veh ORM1 (11744905_x_at) / RFU CCDC152 (11743942_at) / Fold change /veh CCDC152 (11743942_at) / RFU ECM1 (11717891_a_at) / Fold change /veh ECM1 (11717891_a_at) / RFU IL23R (11748794_a_at) / Fold change /veh IL23R (11748794_a_at) / RFU TNFAIP8L3 (11732012_x_at) / Fold change /veh TNFAIP8L3 (11732012_x_at) / RFU MBOAT4 (11741988_at) / Fold change /veh MBOAT4 (11741988_at) / RFU 11764193_at / Fold change /veh 11764193_at / RFU TMEM53 (11763286_at) / Fold change /veh TMEM53 (11763286_at) / RFU MAGEB2 (11727129_at) / Fold change /veh MAGEB2 (11727129_at) / RFU TMEM200A (11744735_a_at) / Fold change /veh TMEM200A (11744735_a_at) / RFU CCDC152 (11751479_a_at) / Fold change /veh CCDC152 (11751479_a_at) / RFU FAM211A (11726209_a_at) / Fold change /veh FAM211A (11726209_a_at) / RFU RGS16 (11746705_a_at) / Fold change /veh RGS16 (11746705_a_at) / RFU VCAN (11755009_s_at) / Fold change /veh VCAN (11755009_s_at) / RFU RHOB (11743442_s_at) / Fold change /veh RHOB (11743442_s_at) / RFU RGS16 (11720943_a_at) / Fold change /veh RGS16 (11720943_a_at) / RFU RGS16 (11720944_at) / Fold change /veh RGS16 (11720944_at) / RFU, VPS4B / Fold change vs veh, VPS4B / RFU, CREB1 / Fold change vs veh, CREB1 / RFU, DNAJC13 / Fold change vs veh, DNAJC13 / RFU, GNAQ / Fold change vs veh, GNAQ / RFU, CDK5R1 / Fold change vs veh, CDK5R1 / RFU, ZRANB3 / Fold change vs veh, ZRANB3 / RFU, CUL4A / Fold change vs veh, CUL4A / RFU, CCNY / Fold change vs veh, CCNY / RFU, UFL1 / Fold change vs veh, UFL1 / RFU, COG3 / Fold change vs veh, COG3 / RFU, DIAPH2 / Fold change vs veh, DIAPH2 / RFU, SKA2 / Fold change vs veh, SKA2 / RFU, AFF3 / Fold change vs veh, AFF3 / RFU, LMF1 / Fold change vs veh, LMF1 / RFU, IPO11 / Fold change vs veh, IPO11 / RFU, DFFB / Fold change vs veh, DFFB / RFU, FOXP1 / Fold change vs veh, FOXP1 / RFU, CARD8 / Fold change vs veh, CARD8 / RFU, STRN3 / Fold change vs veh, STRN3 / RFU, ADK / Fold change vs veh, ADK / RFU, RASSF2 / Fold change vs veh, RASSF2 / RFU, WIPF1 / Fold change vs veh, WIPF1 / RFU, LARP1B / Fold change vs veh, LARP1B / RFU, RASA1 / Fold change vs veh, RASA1 / RFU, RB1 / Fold change vs veh, RB1 / RFU, PPFIA1 / Fold change vs veh, PPFIA1 / RFU, MAT2A / Fold change vs veh, MAT2A / RFU, CCT5 / Fold change vs veh, CCT5 / RFU, WDR92 / Fold change vs veh, WDR92 / RFU, CUX1 / Fold change vs veh, CUX1 / RFU, TTC7A / Fold change vs veh, TTC7A / RFU, TMEM135 / Fold change vs veh, TMEM135 / RFU, DEPTOR / Fold change vs veh, DEPTOR / RFU, CPM / Fold change vs veh, CPM / RFU, DNAJB6 / Fold change vs veh, DNAJB6 / RFU, CACNA2D3 / Fold change vs veh, CACNA2D3 / RFU, DTX4 / Fold change vs veh, DTX4 / RFU, TFCP2 / Fold change vs veh, TFCP2 / RFU, GMCL1 /// GMCL1P1 / Fold change vs veh, GMCL1 /// GMCL1P1 / RFU, AEBP2 / Fold change vs veh, AEBP2 / RFU, SNHG1 /// SNORD22 /// SNORD25 /// SNORD26 /// SNORD27 /// SNORD28 /// SNORD29 /// SNORD31 / Fold change vs veh, SNHG1 /// SNORD22 /// SNORD25 /// SNORD26 /// SNORD27 /// SNORD28 /// SNORD29 /// SNORD31 / Fold change (Aza/veh), C12orf56 (ProbeSet 11735607_a_at) / Fold change (ACY-1035/veh), C12orf56 (ProbeSet 11735607_a_at) / Fold change (Aza/veh), FGFR1OP (ProbeSet 11751329_s_at) / Fold change (ACY-1035/veh), FGFR1OP (ProbeSet 11751329_s_at) / Fold change (Aza/veh), VPS36 (ProbeSet 11739960_a_at) / Fold change (ACY-1035/veh), VPS36 (ProbeSet 11739960_a_at) / RFU SYPL1 (11715823_x_at) / Fold change /veh SYPL1 (11715823_x_at) / RFU IGFBP7 (11715501_s_at) / Fold change /veh IGFBP7 (11715501_s_at) / RFU REEP3 (11722064_at) / Fold change /veh REEP3 (11722064_at) / RFU IGLL1 (11728026_x_at) / Fold change /veh IGLL1 (11728026_x_at): dose or concentration left out as unconfirmed
# Conditions: ProbeSet 11734937_a_at; LIST B
structure (smiles),measurement,value
Nc1ncn([C@@H]2O[C@H](CO)[C@@H](O)[C@H]2O)c(=O)n1 [azacitidine],"Fold change vs veh, CNOT2",0.93
